Consider 3 molecules from patent US20180282662A1, “Process” (GIVAUDAN SA, priority 2014, published 2018).

For series [1], the system named is primates. The note with it: cited from earlier work.
The conditions of series [2]: rats; cited from earlier work.
The conditions of series [3]: dogs; cited from earlier work.
In series [4] the test system is reproductive organs of male rats. As to conditions: rat, in vivo; cited from earlier work.
Series [5] concerns reproductive organs of dogs. As to conditions: dog, in vivo; cited from earlier work.
Series [6] concerns mice. The note with it: mouse, in vivo; cited from earlier work.
The test system of series [7] is guinea-pigs. As to conditions: guinea pig, in vivo; cited from earlier work.
Series [8] concerns glucose synthesis. As to conditions: in vitro; cited from earlier work.
Series [9] deals with fatty acid synthesis. The note with it: in vitro; cited from earlier work.
In series [10] the test system is male rats. The note with it: cited from earlier work.
The nature of series [11]: Susceptibility to enzymatic degradation to the benzoic acid derivative. The series is classed as in vitro ADME.

Structures are written as SMILES. Read-outs that look alike come from different tables or passages of the source.

`CC(C=O)Cc1ccc(C(C)(C)C)cc1` (centres unmarked) [Lilial, 3-(4-tert-butylphenyl)-2-methylpropanal]: the toxic effects result in series [1], in series [6] and in series [7] was “No effects” each time. Further, the “enzymatic degradation to tert-butyl benzoic acid (t-BBA)” value in [2] and in [3] was “enzymatically degraded” in each case. The “toxic effects on the reproductive organs” value in series [4] and in series [5] was “toxic effects” throughout.
In the case of `CC(C)(C)c1ccc(C(=O)O)cc1` [tert-butyl benzoic acid], the “inhibition of glucose synthesis” value in [8] is reported as “inhibit”. Moreover, the “inhibition of fatty acid synthesis” value in series [9] was “inhibit”. The testicular effects entry in series [10] is “testicular effects”.
As for `Cc1cc(CC(C)C)ccc1CCC=O` [(I), 3-(4-Isobutyl-2-methylphenyl)propanal], in series [11], the “enzymatic degradation to its benzoic acid derivative” value was “not susceptible”.
